Where “and” joins values, the source holds several entries; their conditions need not be identical. Equal entries are not always repeated.

This experiment has as its system 186277-243-T-J2-PDC complex spheroid viability. The experiment can be described thus: Anticancer human tumor 186277-243-T-J2-PDC patient-derived colon adenocarcinoma cell line growth inhibition. Particulars: for viability, T/C: stronger effect = lower value. From the text:
Multicellular complex tumor spheroid response to LSD1 Inhibitor Iadademstat in combination with a variety of drugs and investigational agents in selected tumor cell lines
The current study was undertaken to assess response to LSD1 inhibitors in combination with standard-of-care drugs and investigational agents in solid tumor complex spheroid models as well as in the K-562 leukemia. Complex spheroids include a stromal component modeled by human endothelial cells (HUVEC) and fibroblasts modeled by human mesenchymal stem cells (MSCs). The concentration ranges selected for each drug and investigational agent were based upon clinically achievable concentrations if the clinical Cmax of the agent was known.
Compounds. The drugs and investigational agents used in this study are listed on Table 1. All of the agents used, including staurosporine (NSC755774) and gemcitabine (NSC613327), were obtained from the Developmental Therapeutics Program, NCI. FDA-approved anticancer drugs are available from the NCI at http://dtp.nci.nih.gov/branches/dscb/oncology_drugset_explanation.html. Drugs and investigational agents were >95% pure by proton nuclear magnetic resonance (NMR) and liquid chromatography/mass spectrometry (LC/MS). Stock solutions were prepared at 400x in DMSO, stored at -70 degrees C, and diluted in fresh medium prior to their use. The final concentration of DMSO in cell culture wells never exceeded 0.25% (v/v). The FDA-approved anticancer drug set is available from the Developmental Therapeutics Program at https://dtp.cancer.gov/organization/dscb/obtaining/available_plates.htm. All drugs and investigational agents were tested over a range starting from a high concentration at or near the clinical Cmax and decreasing in half-log increments. If the clinical Cmax for an agent had not been determined, the highest concentration tested was 10 microM.
Cell Lines. The patient-derived cancer cell (PDC) lines: 292921-168-R-J2-PDC, K24384-001-R-PDC, and 521955-158-R2-J5-PDC pancreatic carcinomas, 556581-035-R-J1 ovarian carcinoma, 324938-238-R-J1-PDC, 855422-203-R-J1-PDC and 883617-216-R-J1-PDC urothelial bladder carcinomas, 743489-274-T-PDC renal cell carcinoma, 138582-R-J1 Merkel cell tumor, K60290-347-R-J1 and K57222-313-R-J1-PDC glioblastomas, 653999-131-R-J2-PDC, LG0703-F948-PDC, and 349418-098-R-PDC non-small cell lung carcinomas, 885512-296-R-J2-PDC, 171881-019-R-J1-PDC breast carcinomas and 186277-243-T-J2-PDC and 233499-124-R-J2-PDC colon carcinomas were obtained from the NCI Patient-Derived Models Repository (PDMR, https://pdmr.cancer.gov). The established cell lines NCI/ADR-RES (RRID:CVCL_14520 and OVCAR-5 (RRID:CVCL_1628) ovarian carcinomas, 786-O (RRID:CVCL_1051) and A498 (RRID:CVCL_A498) renal cell carcinoma, NCI-H211 (ATCC, cat. CRL-5824; RRID:CVCL_1529), NCI-H196 (ATCC, cat. CRL-5823, RRID:CVCL_1509), SW 1271 (ATCC, cat. CRL-2177, RRID:CVCL_1716) and NCI-H1876 (ATCC, cat. CRL-5902, RRID:CVCL_1503) small cell lung carcinomas, MDA-MB-231 (RRID:CVCL_0062) and MDA-MB-468 (RRID:CVCL_0419)breast carcinomas (10-12). Pooled donor human umbilical vein endothelial cells (HUVEC, Lonza, cat. CC-2519) and human mesenchymal stem cells (hMSC, Lonza, cat. PT-2501) were purchased from Lonza (Walkersville, MD).
Cell Culture. All cells were maintained in an incubator at 37 degrees C and 5% CO2 with 95% humidity. The PDC lines were cultured according to standard operating procedures established by the NCI PDMR (https://pdmr.cancer.gov). Briefly all PDCs were thawed and cultured in Matrigel-coated flasks prepared with a working solution of 1X Ham's F-12 nutrient mix, without supplementation (Invitrogen, Waltham, MA, cat. 11765054), 100 U/mL penicillin-streptomycin (Invitrogen, cat. 15140122), and 2.5% Matrigel (Corning Inc., Corning, NY, cat. 354248) for the first three passages. […]

[1] abbreviates: curve of first compound, second compound 0.1 µM.
[2] abbreviates: curve of first compound, second compound 0.316 µM.
Setting [3] is: curve of first compound, second compound 1 µM.
Where [4] appears, read: curve of first compound, second compound 3.16 µM.
Where [5] appears, read: curve of first compound, second compound 10 µM.
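Also: 7 day exposure to compounds.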

In general, IC50 refers to the midpoint of a concentration-inhibition curve. Broadly, the viability, T/C is the ratio of treated to control. As to `Nc1ncn(C2CC(O)C(CO)O2)c(=O)n1` (centres undefined) + NC1CCC(NC2CC2c2ccccc2)CC1, the IC50 under setting [1] was more than 1000 nM; the half-maximal inhibitory concentration (IC50) under setting [2] was more than 1000 nM; the IC50 under setting [3] was more than 1000 nM; the half-maximal inhibitory concentration (IC50) under setting [4] was more than 1000 nM; the half-inhibitory concentration (IC50) under setting [5] was more than 1000 nM. Further, the viability, T/C is 97.6% (second compound 0.1 µM, first compound 0.00316 µM); 110% (second compound 0.1 µM, first compound 0.01 µM); 98.2% (second compound 0.1 µM, first compound 0.0316 µM); 129% (second compound 0.1 µM, first compound 0.1 µM); 139% (second compound 0.1 µM, first compound 0.316 µM); 142% (second compound 0.1 µM, first compound 1 µM). Besides, the viability, T/C is 95.9% (second compound 0.316 µM, first compound 0.00316 µM); 111% (second compound 0.316 µM, first compound 0.01 µM); 107% (second compound 0.316 µM, first compound 0.0316 µM); 127% (second compound 0.316 µM, first compound 0.1 µM); 141% (second compound 0.316 µM, first compound 0.316 µM); 138% (second compound 0.316 µM, first compound 1 µM). Moreover, the viability, T/C runs as follows: (second compound 1 µM, first compound 0.00316 µM) 102%; (second compound 1 µM, first compound 0.01 µM) 119%; (second compound 1 µM, first compound 0.0316 µM) 111%; (second compound 1 µM, first compound 0.1 µM) 130%; (second compound 1 µM, first compound 0.316 µM) 127%; (second compound 1 µM, first compound 1 µM) 135%. Also, the viability, T/C runs as follows: (second compound 3.16 µM, first compound 0.00316 µM) 101%; (second compound 3.16 µM, first compound 0.01 µM) 108%; (second compound 3.16 µM, first compound 0.0316 µM) 112%; (second compound 3.16 µM, first compound 0.1 µM) 137%; (second compound 3.16 µM, first compound 0.316 µM) 151%; (second compound 3.16 µM, first compound 1 µM) 138%. Besides, the viability, T/C is 113% (second compound 10 µM, first compound 0.00316 µM); 105% (second compound 10 µM, first compound 0.01 µM); 116% (second compound 10 µM, first compound 0.0316 µM); 140% (second compound 10 µM, first compound 0.1 µM); 140% (second compound 10 µM, first compound 0.316 µM); 132% (second compound 10 µM, first compound 1 µM).
Regarding `NS(=O)(=O)OCC1CC(n2ccc3c(NC4CCc5ccccc54)ncnc32)CC1O` (centres undefined) + NC1CC1c1ccc(-c2cccc(O)c2)cc1, the IC50 by setting is: under setting [1], 249 nM; under setting [2], 303 nM; under setting [3], 319 nM; under setting [4], 397 nM; under setting [5], 265 nM. The viability, T/C was 98.8% (second compound 0.1 µM, first compound 0.00949 µM); 89.8% (second compound 0.1 µM, first compound 0.03 µM); 76.8% (second compound 0.1 µM, first compound 0.0949 µM); 47.3% (second compound 0.1 µM, first compound 0.3 µM); 11% (second compound 0.1 µM, first compound 0.949 µM); 4.48% (second compound 0.1 µM, first compound 3 µM). Further, the viability, T/C runs as follows: (second compound 0.316 µM, first compound 0.00949 µM) 104%; (second compound 0.316 µM, first compound 0.03 µM) 101%; (second compound 0.316 µM, first compound 0.0949 µM) 82.3%; (second compound 0.316 µM, first compound 0.3 µM) 53.9%; (second compound 0.316 µM, first compound 0.949 µM) 11.7%; (second compound 0.316 µM, first compound 3 µM) 3.87%. The viability, T/C is, setting by setting: (second compound 1 µM, first compound 0.00949 µM) 116%; (second compound 1 µM, first compound 0.03 µM) 96.8%; (second compound 1 µM, first compound 0.0949 µM) 85.1%; (second compound 1 µM, first compound 0.3 µM) 55.9%; (second compound 1 µM, first compound 0.949 µM) 14.4%; (second compound 1 µM, first compound 3 µM) 4.26%. In addition, the viability, T/C by setting is: (second compound 3.16 µM, first compound 0.00949 µM) 116%; (second compound 3.16 µM, first compound 0.03 µM) 98.2%; (second compound 3.16 µM, first compound 0.0949 µM) 84.4%; (second compound 3.16 µM, first compound 0.3 µM) 69%; (second compound 3.16 µM, first compound 0.949 µM) 12.8%; (second compound 3.16 µM, first compound 3 µM) 3.82%. Also, the viability, T/C reads like this: (second compound 10 µM, first compound 0.00949 µM) 107%; (second compound 10 µM, first compound 0.03 µM) 90.6%; (second compound 10 µM, first compound 0.0949 µM) 73.4%; (second compound 10 µM, first compound 0.3 µM) 52.8%; (second compound 10 µM, first compound 0.949 µM) 14%; (second compound 10 µM, first compound 3 µM) 3.25%.
For `COc1cc(Nc2ncc3c(n2)-c2ccc(Cl)cc2C(c2c(F)cccc2OC)=NC3)ccc1C(=O)O`, the viability, T/C reads like this: (compound 0.00316 µM) 101% and 116%; (compound 0.01 µM) 57.4% and 106%; (compound 0.0316 µM) 30.4% and 99.2%; (compound 0.1 µM) 8.56% and 98.8%.
As to `CC(C)CC(NC(=O)C(Cc1ccccc1)NC(=O)c1cnccn1)B(O)O` (centres undefined), the viability, T/C (compound 0.000316 µM) was 96.1% and 94%; the viability, T/C (compound 0.01 µM) is 3.46% and 0.11%; the viability, T/C (compound 0.0316 µM) was 2.69% and 0.11%; the viability, T/C (compound 0.1 µM) is 3.82% and 0.17%. Besides, the IC50 (curve of compound) is 2.74 nM and 0.548 nM.
